Data published in US7989467B2, “Use of indole-derived compounds for the preparation of a medicament that can be used to treat diseases related to the splicing process” (Centre National de la Recherche Scientifique (CNRS), priority 2003, dated 2011).

Biological target: T1, SRp55 (Homo sapiens, UniProt Q13247)
T1 sequence (Q13247 1-344): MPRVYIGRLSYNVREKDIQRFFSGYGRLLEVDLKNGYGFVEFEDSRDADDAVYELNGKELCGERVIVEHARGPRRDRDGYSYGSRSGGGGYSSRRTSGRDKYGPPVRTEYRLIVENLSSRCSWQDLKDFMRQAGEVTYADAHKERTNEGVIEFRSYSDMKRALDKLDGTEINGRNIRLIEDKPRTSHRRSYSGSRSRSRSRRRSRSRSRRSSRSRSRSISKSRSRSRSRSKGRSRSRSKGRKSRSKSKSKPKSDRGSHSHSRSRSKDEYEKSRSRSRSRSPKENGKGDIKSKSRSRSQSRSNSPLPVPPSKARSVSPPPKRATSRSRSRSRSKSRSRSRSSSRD
Assay: In vitro splicing results, Table 3: SRp55
Type: biochemical
Settings: summary of Table 3

Compound | inhibit the activity of the SRp55 protein specifically
COc1ccc2ccc3[nH]c4c(C)cnc(NCCCN(C)C)c4c3c2c1 [C77, N′-(2-methoxy-8-methyl-7H-benzo[e]pyrido[4,3-b]indol-11-yl)-N,N-dimethyl-propane-1,3-diamine] | inhibit the activity of the SRp55 protein specifically
COc1cccc2c1ccc1c3c(NCCCN(C)C)ncc(C)c3n(C)c21 [C85, N′-(4-methoxy-10,11-dimethyl-11H-benzo[g]pyrido[4,3-b]indol-7-yl)-N,N-dimethyl-propane-1,3-diamine] | inhibit the activity of the SRp55 protein specifically
Cc1cnc(NCC(C)CN(C)C)c2c1[nH]c1ccc3cc(O)ccc3c12 (stereo not drawn) [C88, 11-(3-dimethylamino-2-methyl-propylamino)-8-methyl-7H-benzo[e]pyrido[4,3-b]indol-3-ol] | inhibit the activity of the SRp55 protein specifically
Cc1cnc(NCCCN(C)C)c2c1[nH]c1c3cccc(O)c3ccc12 [C76, 7-(3-dimethylamino-propylamino)-10-methyl-11H-benzo[g]pyrido[4,3-b]indol-4-ol] | inhibit the activity of the SRp55 protein specifically
Cc1cnc(NCCCN(C)C)c2c1[nH]c1c3ccccc3ccc12 [C80, N,N-dimethyl-N′-(10-methyl-11H-benzo[g]pyrido[4,3-b]indoi-7-yl)-propane-1,3-diamine] | inhibit the activity of the SRp55 protein specifically
Cc1cnc(NCCCN(C)C)c2c3c4ccccc4ccc3n(C)c12 [C79, N′-(7,8-dimethyl-7H-benzo[e]pyrido[4,3-b]indol-11-yl)-N,N-dimethyl-propane-1,3-diamine] | inhibit the activity of the SRp55 protein specifically
COc1cccc2c1ccc1[nH]c3c(C)cnc(NCCCN(C)C)c3c12 [C93, N′-(4-methoxy-8-methyl-7H-benzo[e]pyrido[4,3-b]indol-11-yl)-N,N-dimethyl-propane-1,3-diamine] | inhibit the activity of the SRp55 protein specifically
CCN(CC)CCCNc1ncc(C)c2[nH]c3c4ccccc4ccc3c12 [C82, N,N-diethyl-N′-(10-methyl-11H-benzo[g]pyrido[4,3-b]indol-7-yl)-propane-1,3-diamine] | inhibit the activity of the SRp55 protein specifically
Cc1cnc(NCCCN(C)C)c2c1[nH]c1ccc3ccccc3c12 [C87, N,N-dimethyl-N′-(8-methyl-7H-benzo[e]pyrido[4,3-b]indol-11-yl)-propane-1,3-diamine] | inhibit the activity of the SRp55 protein specifically

Tested on: HIV
Assay: Inhibition of HIV multiplication in PMA-stimulated U1 cells (RT-PCR of viral transcripts)
Type: cell-based
Settings: 2.5 μM; 24 h; U1 cells treated with 50 nM PMA; FIG. 6
Excerpt: To this end, human […] cell line U1, which is chronically infected by HIV (Folks et al., 1988. Characterization of a promonocyte clone chronically infected with HIV and inducible by 13-phorbol-12-myristate acetate. J. Immunol., 140: 1117-1122) and which produces large quantities of virus after stimulation by PMA (phorbol myristate acetate), was used. As a result, this cell line constitutes an excellent model to mimic the transition between the latency phase and the viral production phase observed in patients infected by HIV.
The results of this experiment are presented in FIG. 6 in which U1 cells (5×10^5) were treated with 50 nM of PMA in the absence (FIG. 6, lane 1) or in the presence of 2.5 μM of compounds C47, C97, C58, C57, C92, C91, C90, C83, C73, C34, C51, C45, C13, C10, C44, C6, C7, C41, C50, C32, C2, C1, C29, C35 and C99 (FIG. 6, lanes 3-27, respectively). After 24 h of treatment, the virus's transcripts were amplified by RT-PCR using specific VIH, BSS and SJ4.7A primers (Jacquenet et al., 2001, A second exon splicing silencer within human immunodeficiency virus type 1 tat exon 2 represses splicing of Tat mRNA and binds protein hnRNP. H. J. Biol. Chem. 276: 40464-75) and a radioactive tracer (α-32P) CTP.

Compound | inhibition of HIV multiplication (amplification of viral transcripts)
CCN(CC)CC(O)CNc1nccc2c(C)c3[nH]c4ccc(OC)cc4c3cc12 (stereo not drawn) [C44, 1-diethylamino-3-(9-methoxy-5-methyl-6H-pyrido[4,3-b]carbazol-1-ylamino)-propan-2-ol] | excellent inhibitors of HIV multiplication
CCN(CC)CCCNc1nccc2c(C)c3[nH]c4ccc(O)cc4c3cc12 [C35, 1-(3-diethylamino-propylamino)-5-methyl-6H-pyrido[4,3-b]carbazol-9-ol] | excellent inhibitors of HIV multiplication
COc1ccc2[nH]c3c(C)c4ccnc(NCCCCCCNc5c6cc7c([nH]c8ccc(OC)cc87)c(C)c6cc[n+]5C)c4cc3c2c1.[I-] [C13, 9-methoxy-1-[6-(9-methoxy-5-methyl-6H-pyrido[4,3-b]carbazol-1-ylamino)-hexylamino]-2,5-dimethyl-6H-pyrido[4,3-b]carbazol-2-ium iodide] | excellent inhibitors of HIV multiplication
COc1ccc2c(ccc3c2[nH]c2c(C)cnc(NCCCN(C)CCCN)c23)c1 [C97, N-[3-(3-methoxy-10-methyl-11H-benzo[g]pyrido[4,3-b]indol-7-ylamino)-propyl]-N-methyl-propane-1,3-diamine] | excellent inhibitors of HIV multiplication
COc1ccc2c(c1)c1c(C)c3c(NCCCN(C)C)nccc3c(C)c1n2C [C1, N′-(9-methoxy-5,6,11-trimetyl-6H-pyrido[4,3-b]carbazol-1-yl)-N,N-dimethyl-propane-1,3-diamine] | excellent inhibitors of HIV multiplication
C=CCNc1nccc2c(C)c3[nH]c4ccc(OC)cc4c3c(C)c12 [C10, allyl-(9-methoxy-5,11-dimethyl-6H-pyrido[4,3-b]carbazol-1-yl)-amine] | excellent inhibitors of HIV multiplication
CCNCCCNc1nccc2c(C)c3c(cc12)c1cnccc1n3C [C99, N-(5,6-dimethyl-5H-pyrido[3′4′:4,5]pyrrolo[2,3-g]isoquinolin-10-yl)-N′-ethyl-propane-1,3-diamine] | excellent inhibitors of HIV multiplication
COc1ccc2c(ccc3[nH]c4c(C)cnc(NCCCN(C)C)c4c32)c1 [C92, N′-(3-methoxy-8-methyl-7H-benzo[e]pyrido[4,3-b]indol-11-yl)-N,N-dimethyl-propane-1,3-diamine] | excellent inhibitors of HIV multiplication
COc1ccc2c(ccc3c2[nH]c2c(C)cnc(NCCCCN)c23)c1 [C47, N-(3-methoxy-10-methyl-11H-benzo[g]pyrido[4,3-b]indol-7-yl)-butane-1,4-diamine] | excellent inhibitors of HIV multiplication
CCN(CC)CCCNc1nccc2c(C)c3[nH]c4ccc(OC)cc4c3c(C)c12 [C41, N,N-diethyl-N′-(9-methoxy-5,11-dimethyl-6H-pyrido[4,3-b]carbazol-1-yl)-propane-1,3-diamine] | excellent inhibitors of HIV multiplication
CCN(CC)CCCNc1nccc2c(C)c3[nH]c4ccncc4c3cc12 [C51, N-N,diethyl-N′-(6-methyl-5H-pyrido[3′,4′:4,5]pyrrolo[2,3-g]isoquinolin-10-yl)-propane-1,3-diamine] | excellent inhibitors of HIV multiplication
COc1ccc2c(ccc3c2[nH]c2c(C)cnc(NCCCN)c23)c1 [C91, N-(3-methoxy-10-methyl-11H-benzo[g]pyrido[4,3-b]indol-7-yl)-propane-1,3-diamine] | excellent inhibitors of HIV multiplication
COc1cccc2c1ccc1c2[nH]c2c(C)cnc(N)c21 [C83, 4-methoxy-10-methyl-11H-benzo[g]pyrido[4,3-b]indol-7-ylamine] | excellent inhibitors of HIV multiplication
Cc1c2ccnc(NCCCN(C)C)c2cc2c3cnccc3n(C)c12 [C32, N′-(5,6-dimethyl-5H-pyrido[3′4′:4,5]pyrrolo[2,3-g]isoquinolin-10-yl)-N,N-dimethyl-propane-1,3-diamine] | excellent inhibitors of HIV multiplication
CCN(CC)CCNc1nccc2c(C)c3c(c(C)c12)c1cc(OC)ccc1n3C [C29, N,N-diethyl-N′-(9-methoxy-5,6,11-trimethyl-6H-pyrido[4,3-b]carbazol-1-yl)-ethane-1,2-diamine] | excellent inhibitors of HIV multiplication
